Like-named read-outs stand apart in the source and are kept apart here. Bridge positions count the residues as written; N and C are the ends. Square brackets hold non-standard residues; d marks the D form. Peptide text beside a SMILES is read from it. * marks the point of attachment. Heptanoyl(5-Me) = CCC(C)CCCC(=O)*; Dab = NCC[C@H](N)C(=O)O
Assays:
A. junii 1397597 = test: Checkerboard fusidic acid (FD) and colistin sulfate (CS), MIC/FIC and MBC/FBC; type: cell-based, Acinetobacter junii
Protocol: (§1) Checkerboard assays between fusidic acid (FD) and colistin sulfate (CS) with a bacterial load 5(1-10)*10^5 CFU/ml in cationic adapted Mueller Hinton broth (CAMHB). • a. Antimicrobial stock solutions were prepared using sterile distilled water; • b. CS was added along the ordinate; FD was added along the abscissa to 96 well, flat bottom, polystyrene panels with no treatment. Colistin alone was tested in triplicates; • c. Serial 2-fold dilutions starting with 640 […] CS and 640 μg/ml FD were made; 15 μl volume of the serial dilutions were added for each agent to the appropriate wells—final volume at 30 μl; • d. For each agent tested alone an additional 15 μl media was added to the well. 30 μl were added in control wells where none of the agent was tested. The negative control well contains 150 μl media without any additions; • e. From an overnight bacterial culture in tryptic soy broth, 100 μL was added to 10 mL of fresh tryptic soy broth. This was then incubated at 37° C. for 1.5 hour at 180 rpm; • f. Bacteria in 120 μl CAMHB were added to each well (end concentration 5(1-10)*10^5 CFU/ml); • g. Plates were incubated at 37° C. in an ambient air incubator for 24 h • h. Turbidity at OD600 is determined with a plate photometer • i. By using a one-time inoculator 3 μl from each well of the 96-well plate were transferred to three blood agar plates. The plates were incubated over night at 37° C. in an ambient air incubator; • j. MIC values are defined as lowest concentration which restricts bacterial growth to OD600≤0.1; • k. MBC values were determined by visual reading the lowest concentration which inhibits 99.9% of the growth of bacteria in the wells; • l. Determination of the fractional inhibitory concentration (FIC) index and fractional bactericidal concentration (FBC) index and characterization of antimicrobial interactions was assessed;
(§2) FIC calculation was carried out as: (MIC of drug A, tested in combination)/(MIC of drug A, tested alone)+(MIC of drug B, tested in combination)/(MIC of drug B, tested alone). FBC calculation was carried out just as well;
(§3) Interactive categories were calculated from checkerboard analysis using MIC results from testing each agent alone and MIC results from the combination wells adjacent to the wells with growth in them.
(§4) Determination of the fractional inhibitory concentration (FIC) index and fractional bactericidal concentration (FBC) index and characterization of antimicrobial interactions was assessed:
(§5) (ii) Indifference; FIC/FBC>0.5 to <4.0
(§6) (iii) Antagonism; FIC/FBC≥4.0
a. Acinetobacter junii 1391597 (IHMA), colistin resistant (CS 2/2-2/8)

A. guillouiae 1285286 = test: as above; type: cell-based, Acinetobacter guillouiae
Protocol: as §1, §2, §3, §4, §5, §6
d. Acinetobacter guillouiae 1285286 (IHMA), colistin resistant (2xCS 2/4)

[1] = tested on: A. nosocomialis strain (1204194 IHMA); test: Pneumonic mouse model, colistin susceptible strain; type: in vivo, Acinetobacter nosocomialis
Protocol: One colistin susceptible (MIC 1 mg/L) A. nosocomialis strain (1204194 IHMA) and one colistin resistant (MIC 4 mg/L) A. nosocomialis strain (1461911 IHMA) are used. […] Fresh brain heart infusion broth (Merck, Darmstadt, Germany) bacterial cultures, in an aerobic atmosphere in the logarithmic growth phase (4-5 hours) at 37° C., are adjusted to a concentration of 1.0×10^6 colony forming units (CFU)/mL, as verified by both spectrophotometry (OD600 0.01-0.02 nm) and colony counting.
A pneumonic mouse model was used. 8- to 12-week-old, specific-pathogen free, male or female BALB/c mice, with 25-35 g in weight, are used for the study Animals have free access to food and water except during experimental procedures. All studies are performed in accordance with the ethical guidelines for the care and use of laboratory animals, and the protocol is approved by an independent ethical commission.
For inoculation, fresh inocula are prepared for each experiment from frozen stocks of the two A. nosocomialis isolates (1204194 and 1461911 IHMA). Broth cultures of freshly plated A. nosocomialis bacteria are grown to logarithmic phase overnight to an absorbance of 0.3 at 630 nm and diluted to 10^7 CFU/ml in saline. Mice are anesthetized by intraperitoneal (i.p.) injection of 12.5 mg/kg (5 μl) xylazine and 80 mg/kg (25 μl) ketamine and then inoculated intranasally with 0.05 ml of this bacterial suspension. […]

CCC(C)CCCC(=O)N[C@@H](CCN)C(=O)N[C@H](C(=O)N[C@@H](CCN)C(=O)N[C@H]1CCNC(=O)[C@H]([C@@H](C)O)NC(=O)[C@H](CCN)NC(=O)[C@H](CCN)NC(=O)[C@H](CC(C)C)NC(=O)[C@@H](CC(C)C)NC(=O)[C@H](CCN)NC1=O)[C@@H](C)O (stereo partly drawn) [CS, colistin sulphate] ({Heptanoyl(5-Me)}-[Dab]T[Dab][Dab][Dab][dL]L[Dab][Dab]T; lactam 4-C)
MIC (A. junii 1397597; A. junii 1397597, agent alone, CAMHB, 1*10^6 CFU/ml, 24 h): 2 mg/1l | MBC (A. junii 1397597; Acinetobacter junii, 1397597, A. junii 1397597, agent alone, CAMHB, 1*10^6 CFU/ml): 2 µg/mL | MIC (A. junii 1397597; Acinetobacter junii, 1397597, organism list of Example 3, repeated determinations, read-out: Colistin CS MIC): 2 µg/mL | MIC (A. guillouiae 1285286; A. guillouiae 1285286, agent alone, CAMHB, 1*10^6 CFU/ml, 24 h): 2 mg/1l | MBC (A. guillouiae 1285286; Acinetobacter guillouiae, 1285286, A. guillouiae, agent alone, CAMHB, 1*10^6 CFU/ml, read-out: MBC): 4 µg/mL | MBC (A. guillouiae 1285286; organism list of Example 3, Acinetobacter guillouiae 1285286, 2x, read-out: Colistin CS MBC): 4 µg/mL | MIC (A. guillouiae 1285286; organism list of Example 3, Acinetobacter guillouiae 1285286, 2x, read-out: Colistin CS MIC): 2 µg/mL | mice that survive until day 3 ([1]; BALB/c mice, 3 per group, colistin susceptible strain, one intramuscular dose 24 hours after inoculation, combination groups stated together for both strains (6 mice)): 2/3 | numbers of A. nosocomialis in the lung tissue ([1]; day 3, confirmed by qRT-PCR, two surviving monotherapy mice compared with all mice treated with colistin sulphate and teicoplanin or colistin sulphate and fusidic acid): significantly higher numbers
